Results reported in US5760276A, “Aryl-and heteroarylcyclohexenyl substituted alkenes having retinoid agonist, antagonist or inverse agonist type biological activity” (Allergan, priority 1997, dated 1998).

Legend:
[1] = test system: RARγ -VP-16; test: Retinoid inverse agonist assay: inhibition of basal luciferase activity of RARγ-VP-16 chimeric receptor in cotransfected CV-1 cells; type: cell-based; details: CV-1 cells cotransfected with RARγ -VP-16, ER-RXRα chimeric receptor and ERE-tk-Luc reporter
From the text: Inverse agonists are ligands that are capable of inhibiting the basal receptor activity of unliganded receptors. […] Moreover, the biological effects associated with retinoid inverse agonists are distinct from those of retinoid agonists or antagonists. For example, RAR inverse agonists, but not RAR neutral antagonists, cause a dose-dependent inhibition of the protein MRP-8 in cultured human keratinocytes differentiated with serum. MRP-8 is a specific marker of cell differentiation, which is also highly expressed in psoriatic epidermis, but is not detectable in normal human skin. Thus, retinoid inverse agonists may offer a unique way of treating diseases such as psoriasis.
The activity of retinoid inverse agonists can be tested by the procedure of Klein et al. J. Biol. Chem. 271, 22692-22696 (1996) which is expressly incorporated herein by reference.
In this assay, retinoid inverse agonists are able to repress the basal activity of a […] -VP-16 chimeric receptor where the constituitively active domain of the herpes simplex virus (HSV) VP-16 is fused to the N-terminus of RARγ. […] Retinoid inverse agonists are able to inhibit the basal luciferase activity in these cells in a dose dependent manner and IC50 s measured.

[2] = biological target: T1, RARα (Homo sapiens, UniProt P10276); test: Ligand binding assay, RARα
T1 sequence (P10276 1-462): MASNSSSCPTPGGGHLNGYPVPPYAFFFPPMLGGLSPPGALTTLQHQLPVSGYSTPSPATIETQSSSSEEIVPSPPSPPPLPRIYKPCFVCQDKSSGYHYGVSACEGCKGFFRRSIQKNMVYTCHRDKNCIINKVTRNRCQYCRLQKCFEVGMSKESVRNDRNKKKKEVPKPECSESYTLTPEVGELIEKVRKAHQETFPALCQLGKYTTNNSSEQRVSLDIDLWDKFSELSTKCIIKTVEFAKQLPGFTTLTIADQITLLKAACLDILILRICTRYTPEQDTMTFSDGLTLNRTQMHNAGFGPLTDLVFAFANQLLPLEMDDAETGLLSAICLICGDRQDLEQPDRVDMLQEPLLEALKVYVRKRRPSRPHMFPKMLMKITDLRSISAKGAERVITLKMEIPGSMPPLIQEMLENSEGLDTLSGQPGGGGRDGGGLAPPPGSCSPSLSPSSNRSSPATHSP
From the text: (§1) Other assays described below, measure the ability of the compounds of the present invention to bind to, and/or activate various retinoid receptor subtypes. When in these assays a compound binds to a given receptor subtype and activates the transcription of a reporter gene through that subtype, then the compound is considered an agonist of that receptor subtype. […] In the below described assays the ability of the compounds to bind to RARα, RARβ, RARγ, RXRα, RXRβ and RXRγ receptors, and the ability or inability of the compounds to activate transcription of a reporter gene through these receptor subtypes can be tested.
(§2) A holoreceptor transactivation assay and a ligand binding assay which measure the antagonist/agonist like activity of the compounds of the invention, or their ability to bind to the several retinoid receptor subtypes, respectively, are described in published PCT Application No. WO WO93/11755 (particularly on pages 30-33 and 37-41) published on Jun. 24, 1993, the specification of which is also incorporated herein by reference. A description of the holoreceptor transactivation assay is also provided below.
(§3) CV1 cells (5,000 cells/well) were transfected with an RAR reporter plasmid MTV-TREp-LUC (50 ng) along with one of the RAR expression vectors (10 ng) in an automated 96-well format by the calcium phosphate procedure of Heyman et al. Cell 68, 397-406, (1992). For RXRα and RXRγ transactivation assays, an RXR-responsive reporter plasmid CRBPII-tk-LUC (50 ng) along with the appropriate RXR expression vectors (10 ng) was used substantially as described by Heyman et al. above, and Allegretto et al. J. Biol. Chem. 268, 26625-26633. For RXRβ transactivation assays, an RXR-responsive reporter plasmid CPRE-tk-LUC ([…]) along with RXRβ expression vector ([…]) was used as described in above. These reporters contain DRI elements from human CRBPII and certain DRI elements from promoter, respectively. (see Mangelsdorf et al. The Retinoids: Biology, Chemistry and Medicine, pp 319-349, Raven Press Ltd., New York and Heyman et al., cited above) (1, 8). A β-galactosidase (50 ng) expression vector was used as an internal control in the transfections to normalize for variations in transfection efficiency. The cells were transfected in triplicate for 6 hours, followed by incubation with retinoids for 36 hours, and the extracts were assayed for luciferase and β-galactosidase activities. The detailed experimental procedure for holoreceptor transactivations has been described in Heyman et al. and Allegretto et al., cited above. The results obtained in this assay are expressed in EC50 numbers, as they are also in the chimeric receptor transactivation assay. The Heyman et al. Cell 68, 397-406, Allegretto et al. J. Biol. Chem. 268, 26625-26633, and Mangelsdorf et al. The Retinoids: Biology, Chemistry and Medicine, pp 319-349, Raven Press Ltd., New York, are expressly incorporated herein by reference. The results of ligand binding assay are expressed in Kd numbers. (See Cheng et al. Biochemical Pharmacology Vol. 22 pp 3099-3108, expressly incorporated herein by reference.)

[3] = biological target: T2, RARβ (Homo sapiens, UniProt P10826); test: Ligand binding assay, RARβ
T2 sequence (P10826 1-455): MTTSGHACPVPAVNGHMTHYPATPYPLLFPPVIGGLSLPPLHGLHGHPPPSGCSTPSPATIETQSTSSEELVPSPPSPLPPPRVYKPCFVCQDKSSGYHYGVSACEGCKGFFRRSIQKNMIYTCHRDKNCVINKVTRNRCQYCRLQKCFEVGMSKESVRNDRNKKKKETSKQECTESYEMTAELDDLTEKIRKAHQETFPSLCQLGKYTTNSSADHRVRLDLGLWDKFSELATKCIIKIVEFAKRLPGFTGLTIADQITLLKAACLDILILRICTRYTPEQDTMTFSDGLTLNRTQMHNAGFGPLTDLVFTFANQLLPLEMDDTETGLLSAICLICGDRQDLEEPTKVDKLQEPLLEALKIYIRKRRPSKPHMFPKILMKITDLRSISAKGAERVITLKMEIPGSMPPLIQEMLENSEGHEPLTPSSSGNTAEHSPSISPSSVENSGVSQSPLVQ
From the text: as §1, §2, §3

[4] = biological target: T3, RARγ (Homo sapiens, UniProt P13631); test: Ligand binding assay, RARγ
T3 sequence (P13631 1-454): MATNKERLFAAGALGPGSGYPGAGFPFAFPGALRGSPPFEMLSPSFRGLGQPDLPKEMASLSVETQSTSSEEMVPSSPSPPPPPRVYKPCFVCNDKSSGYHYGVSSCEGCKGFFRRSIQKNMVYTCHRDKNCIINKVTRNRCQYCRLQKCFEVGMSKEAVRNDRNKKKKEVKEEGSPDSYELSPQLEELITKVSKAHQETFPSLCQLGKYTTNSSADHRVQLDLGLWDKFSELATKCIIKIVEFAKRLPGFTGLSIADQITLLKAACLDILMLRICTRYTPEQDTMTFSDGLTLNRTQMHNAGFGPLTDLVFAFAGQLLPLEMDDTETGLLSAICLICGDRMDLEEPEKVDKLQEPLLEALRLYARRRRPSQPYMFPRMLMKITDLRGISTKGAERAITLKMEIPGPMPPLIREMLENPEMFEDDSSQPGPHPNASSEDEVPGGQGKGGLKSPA
From the text: Other assays described below, measure the ability of the compounds of the present invention to bind to, and/or activate various retinoid receptor subtypes. When in these assays a compound binds to a given receptor subtype and activates the transcription of a reporter gene through that subtype, then the compound is considered an agonist of that receptor subtype. […] In the below described assays the ability of the compounds to bind to RARα, RARβ, RARγ, RXRα, RXRβ and […]. receptors, and the ability or inability of the compounds to activate transcription of a reporter gene through these receptor subtypes can be tested. A holoreceptor transactivation assay and a ligand binding assay which measure the antagonist/agonist like activity of the compounds of the invention, or their ability to bind to the several retinoid receptor subtypes, respectively, are described in published PCT Application No. […] A description of the holoreceptor transactivation assay is also provided below. […] Cell 68, 397-406, (1992). For RXRα and RXRγ transactivation assays, an RXR-responsive reporter plasmid CRBPII-tk-LUC (50 ng) along with the appropriate RXR expression vectors (10 ng) was used substantially as described by Heyman et al. above, and Allegretto et al. J. Biol. Chem. 268, 26625-26633. […] These reporters contain DRI elements from human CRBPII and certain DRI elements from promoter, respectively. (see Mangelsdorf et al. The Retinoids: Biology, Chemistry and Medicine, pp 319-349, Raven Press Ltd., New York and Heyman et al., cited above) (1, 8). A β-galactosidase (50 ng) expression vector was used as an internal control in the transfections to normalize for variations in transfection efficiency. The cells were transfected in triplicate for 6 hours, followed by incubation with retinoids for 36 hours, and the extracts were assayed for luciferase and β-galactosidase activities. The detailed experimental procedure for holoreceptor transactivations has been described in Heyman et al. and Allegretto et al., cited above. The results obtained in this assay are expressed in EC50 numbers, as they are also in the chimeric receptor transactivation assay. The Heyman et al. Cell 68, 397-406, Allegretto et al. J. Biol. Chem. 268, 26625-26633, and Mangelsdorf et al. The Retinoids: Biology, Chemistry and Medicine, pp 319-349, Raven Press Ltd., New York, are expressly incorporated herein by reference. The results of ligand binding assay are expressed in Kd numbers.

Work on CCOC(=O)c1ccc(C#C/C=C/C2C(c3ccc(C)cc3)=CCCC2(C)C)cc1 (racemic) [Compound 10, Ethyl (±)-(E)-4-(4-(2-(4-Methylphenyl)-4,4-dimethylcyclohexen-3-yl)but-3-en-1-yn-1-yl)benzoate] yielded an IC50 [1] of 0.001 µM.
With Cc1ccc(C2=CCCC(C)(C)C2/C=C/C#Cc2ccc(C(=O)O)cc2)cc1 (racemic) [Compound 14, (±)-(E)-4-(4-(2-(4-Methylphenyl)-4,4-dimethylcyclohexen-3-yl)but-3-en-1-yn-1-yl)benzoic acid] the Kd [2] was 0.454 µM, the Kd [3] was 0.024 µM and the Kd [4] was 0.098 µM.
Cc1ccc(C2=C(/C=C/C#Cc3ccc(C(=O)O)cc3)C(C)(C)CCC2)cc1 [Compound 13, (E)-4-(4-(1-(4-Methylphenyl)-3,3-dimethylcyclohexen-2-yl)but-3-en-1-yn-1-yl)benzoic Acid] was tested, and the Kd [2] was 0.148 µM, the Kd [3] was 0.006 µM and the Kd [4] was 0.021 µM.
CCc1ccc(C2=C(/C=C/C#Cc3ccc(C(=O)O)cc3)C(C)(C)CCC2)cc1 [Compound 15, (E)-4-(4-(1-(4-Ethylphenyl)-3,3-dimethylcyclohexen-2-2l)but-3-en-1-yn-1-yl)benzoic acid] was tested, and the Kd [2] was 0.136 µM, the Kd [3] was 0.004 µM and the Kd [4] was 0.036 µM.
Compound CC1(C)CCCC(c2ccc(C(C)(C)C)cc2)=C1/C=C/C#Cc1ccc(C(=O)O)cc1 [Compound 16, (E)-4-(4-(1-(4-tert-butylphenyl)-3,3-dimethylcyclohexen-2-yl)but-3-en-1-yn-1-yl)benzoic acid] has a Kd [2] of 0.875 µM, a Kd [3] of 0.013 µM and a Kd [4] of 0.333 µM.
Cc1ccc(C2=CCC(C)(C)C=C2/C=C/C#Cc2ccc(C(=O)O)cc2)cc1 [Compound 24, (E)-4-(4-(2-(4-Methylphenyl)-5,5-dimethyl-1,3-cyclohexadien-3-yl)but-3-ene-1-yn-1-yl)benzoic Acid] showed a Kd [2] of 0.134 µM, a Kd [3] of 0.048 µM and a Kd [4] of 0.033 µM.
